Data as given in PubChem BioAssay (NCI).
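Compound exposure: 48 hours, 5 concentrations, 96-well plates. GI50: concentration for 50% inhibition of growth. TGI marks complete inhibition of growth.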

Assays:
Assay in all cases: NCI-60 cell line screen, 48 h
ACHN renal = test system: ACHN renal
DLD-1 colon = test system: DLD-1 colon
DMS 114 small cell lung = test system: DMS 114 small cell lung
HOP-18 NSCLC = test system: HOP-18 NSCLC
IGROV1 ovarian = test system: IGROV1 ovarian
KM20L2 colon = test system: KM20L2 colon
LXFL 529 NSCLC = test system: LXFL 529 NSCLC
M19-MEL melanoma = test system: M19-MEL melanoma
NCI-H522 lung = test system: NCI-H522 lung
RXF-631 renal = test system: RXF-631 renal
SK-OV-3 ovarian = test system: SK-OV-3 ovarian
SNB-78 CNS = test system: SNB-78 CNS
SW-620 colon = test system: SW-620 colon
XF 498 CNS = test system: XF 498 CNS
DMS 273 small cell lung = test system: DMS 273 small cell lung
MDA-MB-231 breast = test system: MDA-MB-231 breast

| SMILES | TGI (ACHN renal) | TGI (DLD-1 colon) | TGI (DMS 114 small cell lung) | TGI (HOP-18 NSCLC) | TGI (IGROV1 ovarian) | TGI (KM20L2 colon) | TGI (LXFL 529 NSCLC) | TGI (M19-MEL melanoma) | TGI (NCI-H522 lung) | TGI (RXF-631 renal) | TGI (SK-OV-3 ovarian) | TGI (SNB-78 CNS) | TGI (SW-620 colon) | TGI (XF 498 CNS) | TGI (DMS 273 small cell lung) | TGI (MDA-MB-231 breast) | GI50 (SW-620 colon) |
| --- | --- | --- | --- | --- | --- | --- | --- | --- | --- | --- | --- | --- | --- | --- | --- | --- | --- |
| CS/C(C)=N/OC(=O)NCCCCNc1ccc(N=[N+]=[N-])cc1 | 97.2 µM | > 100 µM | 43.2 µM | > 100 µM | > 100 µM | > 100 µM | > 100 µM | > 100 µM | 23.7 µM | 31.4 µM | > 100 µM | > 100 µM | > 100 µM | 52 µM |  |  |  |
| N#Cc1cc([N+](=O)[O-])ccc1NC(=O)/C(=N/N)C(C(=O)c1ccc(Cl)c(Cl)c1)C1OC(=O)c2ccccc21 (stereo unspecified) | > 100 µM | > 100 µM | > 100 µM |  | > 100 µM |  | > 100 µM | > 100 µM | > 100 µM |  | > 100 µM | > 100 µM | > 100 µM |  |  |  |  |
| COc1cccc2nc3cc(C)c(C)cc3nc12 | > 100 µM | > 100 µM | > 100 µM | > 100 µM | > 100 µM | > 100 µM | > 100 µM | > 100 µM | > 100 µM | > 100 µM | > 100 µM | > 100 µM | > 100 µM | > 100 µM | > 100 µM |  |  |
| C=C=C(Sc1ccccc1)C(C)(C)OC(C)=O |  | 31.5 µM |  | 38.5 µM | 33.3 µM | 58.7 µM | 38.3 µM | 30.6 µM | 29.6 µM |  | 51.9 µM | 91.4 µM | 33.7 µM |  |  |  |  |
| CC(C)C1COC(c2cccc(C3=N[C@@H](C(C)C)CO3)n2)=N1 (stereo partly specified) | > 100 µM | > 100 µM | > 100 µM |  | > 100 µM | > 100 µM | > 100 µM | > 100 µM | > 100 µM | > 100 µM | > 100 µM | > 100 µM | > 100 µM | > 100 µM | > 100 µM |  |  |
| O=C1/C(=C/c2c(Cl)[nH]c3ccccc23)c2ccccc2N1c1ccccc1 | 57.2 µM |  |  |  | 39.1 µM |  |  |  | 10.7 µM |  | 14.2 µM |  | 41.7 µM |  |  | 29.6 µM |  |
| CCC(=O)N(O)C(C)(C)C | > 100 µM | > 100 µM | > 100 µM |  | > 100 µM | > 100 µM | > 100 µM | > 100 µM | > 100 µM |  | > 100 µM | > 100 µM | > 100 µM |  |  |  |  |
| C=CCNC(=O)NCCCC(NC(C)=O)C(=O)NCc1ccccc1 (stereo unspecified) | > 100 µM |  |  | > 100 µM | > 100 µM | > 100 µM | > 100 µM | > 100 µM | > 100 µM | > 100 µM | > 100 µM |  | > 100 µM | > 100 µM | > 100 µM |  |  |
| CC(C)(C)OC(=O)N/N=C(/N)Cc1ccccc1 | > 100 µM |  |  |  | > 100 µM |  |  |  | > 100 µM |  | > 100 µM |  | > 100 µM |  |  | > 100 µM |  |
| CC(=O)N1N(c2ccc([N+](=O)[O-])cc2)C(=O)C1(C)C | 41.5 µM |  |  |  | 44.8 µM |  |  |  | 27.2 µM |  | > 100 µM |  | 29.2 µM |  |  | 45.7 µM |  |
| COc1cccc2c1C(=O)c1ccc3cc(CCl)cc(O)c3c1C2=O | 0.84 µM |  |  |  | 1.54 µM |  |  |  | 1.15 µM |  | 1.83 µM |  | 0.293 µM |  |  | 0.35 µM |  |
| c1ccc(C2OCC(OC3CCCCO3)CO2)cc1 (stereo unspecified) | > 100 µM |  |  |  | > 100 µM |  |  |  | > 100 µM |  | > 100 µM |  | > 100 µM |  |  | > 100 µM |  |
| O=C(/C=C/c1ccccc1)CSc1nc2ccc(I)cc2c(=O)n1Cc1ccccc1 | > 100 µM |  |  |  | > 68 µM |  |  |  | > 89.5 µM |  | > 100 µM |  | > 100 µM |  |  | > 100 µM |  |
| COC(=O)C1(Cc2ccc3c(c2)CCC3)Cc2ccc3c(c2C1)CCC3 (stereo unspecified) | 73.2 µM |  |  |  | 74.6 µM |  |  |  | 45.1 µM |  | > 100 µM |  | 69.7 µM |  |  | 45 µM |  |
| Cc1cc2nc(-c3c(F)cccc3F)n(Cc3c(F)cccc3F)c2cc1C | 35.4 µM |  |  |  | 28.4 µM |  |  |  | 27.1 µM |  | 42.2 µM |  | 35 µM |  |  | 31 µM |  |
| COc1ccc(-c2cc(=O)c3cc4c(cc3[nH]2)OCO4)cc1 | > 100 µM | > 100 µM | > 100 µM |  | > 100 µM | > 100 µM | > 100 µM | > 100 µM |  |  |  |  | > 100 µM | > 100 µM | > 100 µM |  |  |
| O=C1Nc2ccccc2/C1=C/c1c(Cl)[nH]c2ccc(O)cc12 | 31.4 µM |  |  |  | 13.5 µM |  |  |  | 6.74 µM |  | 30.4 µM |  | 20.7 µM |  |  | 6.77 µM |  |
| O=c1[nH]c(-c2ccccc2)nc2c1sc1nc3ccccc3n12 | > 100 µM |  |  |  | > 100 µM |  |  |  | > 100 µM |  | > 100 µM |  | > 100 µM |  |  | > 100 µM |  |

| SMILES | TGI (ACHN renal) | TGI (DLD-1 colon) | TGI (DMS 114 small cell lung) | TGI (HOP-18 NSCLC) | TGI (IGROV1 ovarian) | TGI (KM20L2 colon) | TGI (LXFL 529 NSCLC) | TGI (M19-MEL melanoma) | TGI (NCI-H522 lung) | TGI (RXF-631 renal) | TGI (SK-OV-3 ovarian) | TGI (SNB-78 CNS) | TGI (SW-620 colon) | TGI (XF 498 CNS) | TGI (DMS 273 small cell lung) | TGI (MDA-MB-231 breast) | GI50 (SW-620 colon) |
| --- | --- | --- | --- | --- | --- | --- | --- | --- | --- | --- | --- | --- | --- | --- | --- | --- | --- |
| O=c1c2cn[nH]c2nc2scc(-c3ccc(Cl)cc3)n12 | > 100 µM |  |  |  | > 100 µM |  |  |  | > 100 µM |  | > 100 µM |  | > 100 µM |  |  | > 100 µM |  |
| NC(CCC(=O)O)(CCC(=O)O)CCC(=O)O | > 100 µM |  |  |  | > 100 µM |  |  |  | > 100 µM |  | > 100 µM |  | > 100 µM |  |  | > 100 µM |  |
| COC(=O)C1=C(C)NC(C)=C(C(=O)OC)C1c1cccc(NO)c1 | 26.8 µM |  |  |  | 30.4 µM |  |  |  | 20.8 µM |  | > 100 µM |  | 28.5 µM |  |  | 31.4 µM |  |
| COc1cccc(C2SCC(=O)N2c2ccc(-n3c(-c4ccccc4)nc4ccccc4c3=O)cc2)c1OC (stereo unspecified) | > 100 µM |  |  |  | > 100 µM |  |  |  | > 100 µM |  | > 100 µM |  | > 100 µM |  |  | > 100 µM |  |
| CCCCOCCOC1=CC(=O)c2c(O)ccc(O)c2C1=O | 3.1 µM |  |  |  | 3.35 µM |  |  |  | 2.93 µM |  | > 10 µM |  | 2.84 µM |  |  | 3.85 µM |  |
| COC(=O)C1CCC(=O)N1C(c1ccccc1)c1cc(OC)c(OC)c(OC)c1 (stereo unspecified) | > 100 µM |  |  |  | > 100 µM |  |  |  | > 100 µM |  | > 100 µM |  | > 100 µM |  |  | > 100 µM |  |
| CCOC(=O)/C=C(\C(=O)OCC)n1ccc(=O)n(CC(=O)OCC)c1=O | 3.29 µM |  |  |  | 19.3 µM |  |  |  | 3.25 µM |  | 32.4 µM |  | 2.72 µM |  |  | 17.2 µM | 1420 nM |
| CCOC(=O)Nc1nn(C)c(=NCc2ccccc2)s1 | > 100 µM |  |  |  | > 100 µM |  |  |  | > 100 µM |  | > 100 µM |  | > 100 µM |  |  | > 100 µM |  |
| CC(C)(CO)NC(=O)Nc1c(C(F)(F)F)cc(-c2ccccc2)[nH]c1=O | > 100 µM |  |  |  | > 100 µM |  |  |  | > 100 µM |  | > 100 µM |  | > 100 µM |  |  | > 100 µM |  |
| CCN(CC)CC(C(=O)Nc1c(C)cccc1C)/C(C)=N\NC(=O)c1ccncc1 (stereo unspecified) | > 100 µM | > 100 µM | > 100 µM | > 100 µM | > 100 µM |  | > 100 µM | > 100 µM | > 100 µM | > 100 µM | > 100 µM | > 100 µM |  | > 100 µM | > 100 µM |  |  |
| O=C1C(=C(I)I)c2ccccc2-c2ccccc21 | 5.59 µM |  |  |  | 17.6 µM |  |  |  | 2.61 µM |  | 28 µM |  | 8.13 µM |  |  | 4.31 µM |  |
| COC(C)(C)CCc1[nH]c2ccccc2c1CC(=O)NCCc1cncn1C | > 100 µM |  |  |  | > 100 µM |  |  |  | > 100 µM |  | > 100 µM |  | > 100 µM |  |  | > 100 µM |  |
| CC1(C)OC(=O)C2(O1)C(=O)C1CCCCC12 (stereo unspecified) | > 100 µM |  |  |  | > 100 µM |  |  |  | > 100 µM |  | > 100 µM |  | > 100 µM |  |  | > 100 µM |  |
| C=C1C(=O)O[C@H]2[C@H]3O[C@@H](C[C@@H]12)[C@@]1(C)CC[C@H](O1)C(C)=CCC[C@H]3C | 2.88 µM |  |  |  | 3.83 µM |  |  |  | 3.42 µM |  | 16.2 µM |  | 7.41 µM |  |  | 3.14 µM |  |
| CN(CCCN(C)CCc1ccc(Cl)c(Cl)c1)CCCN1CCCC1 | 19.2 µM |  |  |  | 8.65 µM |  |  |  | 3.51 µM |  | 23.1 µM |  | 7.96 µM |  |  | 3.61 µM |  |
| O=c1oc2c(ccc3ccccc32)cc1C1=CSC2=NCCN12 | > 100 µM |  |  |  | > 100 µM |  |  |  | > 100 µM |  | > 100 µM |  | > 100 µM |  |  | > 100 µM |  |
| O=c1oc(-c2ccccc2)c(-c2ccccc2)n1-c1ccc(Br)cc1 | > 100 µM |  |  |  | > 100 µM |  |  |  | 62.7 µM |  | > 100 µM |  | > 100 µM |  |  | > 100 µM |  |
